Measured values reported in US20220289794A1, “SYNTHETIC ANTIMICROBIAL PEPTIDES” (priority 2019, published 2022).
Values after ≈ are worked out from the molar mass of the structure shown. Residues, ends and D or L forms follow the SMILES beside them.

What was measured:
[1] = system: Escherichia coli (E. Coli, ATCC 25922); details: Escherichia coli (ATCC 25922); antibiotic alone
[2] = system: MRSA
[3] = system: KPC
[4] = system: PSA
[5] = system: E. coli

MIC of antibiotic [1]	Molecule	MIC MRSA ATCC BAA-1556 [2]	MIC Klebsiella pneumoniae (ATCC BAA-1705) [3]	MIC Pseudomonas aeruginosa (ATCC 27883) [4]	MIC Escherichia coli (ATCC 25922) [5]
64 µg/mL	O=C(O)c1cn(C2CC2)c2cc(N3CCNCC3)c(F)cc2c1=O [Ciprofloxacin, reference compound]	–	–	–	–
–	H-RRRRRWWWWK-OH [Linear R5W4K (SEQ ID NO. 36)]	8 µg/mL	64 µg/mL	32 µg/mL	32 µg/mL
–	N=C(N)NCCC[C@@H]1NC(=O)[C@H](CCCNC(=N)N)NC(=O)[C@H](Cc2c[nH]c3ccccc23)NC(=O)[C@H](Cc2c[nH]c3ccccc23)NC(=O)[C@H](Cc2c[nH]c3ccccc23)NC(=O)[C@H](CCCNC(=N)N)NC1=O [[R3W3] (IFX-302)] (cyclo(WWWRRR))	16 µg/mL (≈ 15.6 µM)	64 µg/mL (≈ 62.3 µM)	128 µg/mL (≈ 125 µM)	32 µg/mL (≈ 31.2 µM)
–	N=C(N)NCCC[C@@H]1NC(=O)[C@H](CCCNC(=N)N)NC(=O)[C@H](CCCNC(=N)N)NC(=O)[C@H](Cc2c[nH]c3ccccc23)NC(=O)[C@H](Cc2c[nH]c3ccccc23)NC(=O)[C@H](Cc2c[nH]c3ccccc23)NC(=O)[C@H](Cc2c[nH]c3ccccc23)NC(=O)[C@H](Cc2c[nH]c3ccccc23)NC(=O)[C@H](CCCNC(=N)N)NC(=O)[C@H](CCCNC(=N)N)NC1=O [[R5W5] (IFX-314)] (cyclo(RRRRRWWWWW))	4 µg/mL (≈ 2.34 µM)	32 µg/mL (≈ 18.7 µM)	32 µg/mL (≈ 18.7 µM)	16 µg/mL (≈ 9.35 µM)
–	N=C(N)NCCC[C@@H]1NC(=O)[C@H](CCCNC(=N)N)NC(=O)[C@H](CCCNC(=N)N)NC(=O)[C@H](Cc2c[nH]c3ccccc23)NC(=O)[C@H](Cc2c[nH]c3ccccc23)NC(=O)[C@H](Cc2c[nH]c3ccccc23)NC(=O)[C@H](Cc2c[nH]c3ccccc23)NC(=O)[C@H](CCCNC(=N)N)NC1=O [[R4W4] (IFX-326)] (cyclo(RRRRWWWW))	4 µg/mL (≈ 2.92 µM)	32 µg/mL (≈ 23.4 µM)	64 µg/mL (≈ 46.7 µM)	16 µg/mL (≈ 11.7 µM)
